pEC50, pIC50, pKi: −log10 of the molar value.
Columns and labels:
[1] = molecular target: mTOR enzyme (mTOR(1360-2549)+GBL) (Homo sapiens, UniProt P42345); assay: In vitro mTOR kinase assay (TR-FRET); type: biochemical; conditions: Ki apparent, Morrison ATP-competitive tight binding equation; 8 uM ATP, 0.25 nM mTOR+GBL; read-out: activity level (Ki) in the mTOR kinase assay
Method: The kinase activity of mTOR enzyme is assessed by incubating purified recombinant enzyme (mTOR(1360-2549)+GBL, prepared in-house) in a reaction mixture containing ATP, MnCl2, and a fluorescently labeled mTOR substrate, e.g., GFP-4E-BP1 (Invitrogen, product #PR8808A). The reaction is stopped by an addition of a Terbium-labeled phospho-specific antibody, e.g., Tb-labeled anti-p4E-BP1 T37/T46, (Invitrogen, product #PR8835A), EDTA, and TR-FRET buffer solution (Invitrogen, Product #PR3756B). Product formation is detected by way of time-resolved fluorescence resonance energy transfer (TR-FRET), which occurs when the phosphorylated substrate and labeled antibody are in close proximity due to phospho-specific binding. Enzymatic activity is measured as an increase in TR-FRET signal using a Perkin Elmer Envision plate reader. The assay is performed in a 384-well Proxiplate Plus (Perkin Elmer. Product #6008269) using the following protocol:
Compound activity is tested in 10 point dose curves starting at the highest final concentration of 10 uM. They are serially diluted in 100% DMSO prior to further dilution with assay buffer. The reaction mixture (8 uls) containing 0.25 nM mTOR+GBL enzyme, 400 nM GFP-4E-BP1, 8 uM ATP, 50 mM Hepes pH 7.5, 0.01% Tween 20, 10 mM MnCl2, 1 mM EGTA, 1 mM DTT, 1% DMSO (+/−compound) is incubated at room temperature for 30 minutes. 8 μL of solution containing 2 nM Tb-anti-p4E-BP1 antibody & 10 mM EDTA diluted TR-FRET buffer is then added and incubated for 30 minutes to stop the reaction. The plate is scanned with the Envision plate reader. Ki values are calculated in Assay Explorer using the Morrison ATP-competitive tight binding equation for Ki apparent determination.

PC3 cells = assay: In vitro cell proliferation assay; type: cell-based; conditions: Homo sapiens, PC-3; with PC3 cells
Method: Efficacy of Formula I compounds were measured by a cell proliferation assay employing the following protocol:
1. An aliquot of 20 μl of cell culture containing about 10^3 cells (PC3 or MDAMB361.1) in medium was deposited in each well of a 384-well, opaque-walled plate.
2. Control wells were prepared containing medium and without cells; Cells were allowed to settle overnight.
3. The compound was added to the experimental wells and incubated for 3 days.
4. The plates were equilibrated to room temperature for approximately 30 minutes.
5. A volume of CellTiter-Glo Reagent equal to the volume of cell culture medium present in each well was added.
6. The contents were mixed for 2 minutes on an orbital shaker to induce cell lysis.
7. The plate was incubated at room temperature for 20 minutes to stabilize the luminescence signal.
8. Luminescence was recorded and reported in graphs as RLU=relative luminescence units.
Alternatively, cells were seeded at optimal density in a 96 well plate and incubated for 4 days in the presence of test compound. Alamar Blue™ was subsequently added to the assay medium, and cells were incubated for 6 h before reading at 544 nm excitation, 590 nm emission. IC50 values were calculated using a sigmoidal dose response curve fit.

[2] = tested on: AKT serine-473 phosphorylation in PC-3 cells; assay: In vitro phospho-AKT serine 473 cellular assay; type: cell-based; conditions: Homo sapiens, 0.5 h; PC-3 cells stimulated with EGF, 30 minutes compound incubation; read-out: EC50 activity level (50% decrease of S473 AKT phosphorylation)
Method: The assay measures a test compound's inhibition of AKT serine-473 phosphorylation in human prostate adenocarcinoma derived PC-3 (ATCC CRL-1435) cells that have been stimulated with epidermal growth factor (EGF).
The PC-3 cell line is maintained in RPMI1640 media supplemented with 10% FBS, 2 mM Glutamine, and 10 mM HEPES pH 7.4 at 37° C. in a 5% CO2 humidified incubator.
Cells are seeded in 384-well plates at 7,000 cells/well in 50 μl growth media. After 24 hours, growth media is removed and replaced with RPMI1640 containing no FBS. Cells are treated with 10 concentrations of test compounds or DMSO alone for controls (final DMSO concentration 0.5%) and incubated at 37° C. for 30 minutes. Cells are then stimulated for 10 minutes with 100 ng/ml EGF (final concentration). One column of controls is not stimulated with EGF to observe the signal ratio between stimulated and non-stimulated cells. After 10 minutes, compounds and stimulation media are removed and replaced with 25 μl lysis buffer containing protease inhibitors and phosphatase inhibitors. This buffer contains detergent to bring about cellular disruption. […] Following the transfer of lysate to the MSD plate, AKT in the lysate is captured on the coated antibody by incubation on a shaker at 4° C. for 16 hours. Following the capture step the plate is washed and then incubated for two hours with an antibody to S473 phosphorylated AKT which is conjugated with a Sulfo-Tag. This tag gives a signal when in proximity to the electrode on the base of the MSD plate. Binding the tagged antibody to the captured protein allow detection on a MSD reader.
The EC50 is defined as the concentration at which a given compound achieves 50% decrease of the measured levels of S473 AKT phosphorylation. EC50 values are calculated using MDL Assay Explorer 3.0.1.8 fitting a sigmoidal curve with a variable slope.

Sequence of mTOR enzyme (mTOR(1360-2549)+GBL) (P42345 1360-2549): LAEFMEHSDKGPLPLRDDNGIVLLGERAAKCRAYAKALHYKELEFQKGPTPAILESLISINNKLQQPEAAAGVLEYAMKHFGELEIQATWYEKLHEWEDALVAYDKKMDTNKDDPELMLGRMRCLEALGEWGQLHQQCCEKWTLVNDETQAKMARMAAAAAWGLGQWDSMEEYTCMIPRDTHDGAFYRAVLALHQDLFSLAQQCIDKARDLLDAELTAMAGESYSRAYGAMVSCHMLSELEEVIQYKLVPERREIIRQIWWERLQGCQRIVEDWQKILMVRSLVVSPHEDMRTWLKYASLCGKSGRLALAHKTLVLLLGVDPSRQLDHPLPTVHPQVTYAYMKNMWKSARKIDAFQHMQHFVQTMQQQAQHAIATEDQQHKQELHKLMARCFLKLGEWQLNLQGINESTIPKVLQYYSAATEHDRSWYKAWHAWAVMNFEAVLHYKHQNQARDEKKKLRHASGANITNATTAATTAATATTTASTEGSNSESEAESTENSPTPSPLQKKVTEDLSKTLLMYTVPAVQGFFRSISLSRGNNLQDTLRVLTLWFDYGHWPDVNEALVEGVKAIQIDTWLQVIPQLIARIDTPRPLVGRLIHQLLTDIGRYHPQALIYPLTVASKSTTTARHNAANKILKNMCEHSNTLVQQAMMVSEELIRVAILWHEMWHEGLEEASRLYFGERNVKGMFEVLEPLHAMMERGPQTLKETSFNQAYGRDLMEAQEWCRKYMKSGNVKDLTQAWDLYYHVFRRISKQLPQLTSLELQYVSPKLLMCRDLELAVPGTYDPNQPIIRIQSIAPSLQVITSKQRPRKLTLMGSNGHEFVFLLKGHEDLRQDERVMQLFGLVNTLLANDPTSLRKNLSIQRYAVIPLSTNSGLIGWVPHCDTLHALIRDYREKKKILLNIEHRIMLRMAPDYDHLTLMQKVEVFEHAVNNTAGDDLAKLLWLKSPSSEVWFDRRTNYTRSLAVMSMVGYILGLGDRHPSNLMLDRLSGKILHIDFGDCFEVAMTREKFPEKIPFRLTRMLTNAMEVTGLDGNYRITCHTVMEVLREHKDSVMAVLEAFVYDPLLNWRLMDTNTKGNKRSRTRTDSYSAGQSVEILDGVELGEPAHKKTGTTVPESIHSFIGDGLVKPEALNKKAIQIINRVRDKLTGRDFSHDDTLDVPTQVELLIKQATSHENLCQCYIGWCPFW
Sequence of mTOR enzyme (mTOR(1360-2549)+GBL) (Q9BVC4 whole entry partner): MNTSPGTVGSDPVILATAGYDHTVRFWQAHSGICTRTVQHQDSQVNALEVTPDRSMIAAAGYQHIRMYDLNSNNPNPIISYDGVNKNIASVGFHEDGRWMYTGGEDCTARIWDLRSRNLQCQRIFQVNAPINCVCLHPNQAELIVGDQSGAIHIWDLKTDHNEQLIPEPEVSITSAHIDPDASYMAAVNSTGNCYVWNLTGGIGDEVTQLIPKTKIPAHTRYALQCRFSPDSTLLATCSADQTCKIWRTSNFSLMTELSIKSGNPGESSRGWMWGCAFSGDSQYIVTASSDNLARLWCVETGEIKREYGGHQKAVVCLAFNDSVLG

SMILES | pKi [1] | pIC50 (PC3 cells) | pEC50 [2]
CCNC(=O)Nc1ccc(-c2nc(N3CCOC[C@@H]3C)c3nc(C4(O)COC4)n(C)c3n2)cc1 [Compound 101, (S)-1-ethyl-3-(4-(8-(3-hydroxyoxetan-3-yl)-9-methyl-6-(3-methylmorpholino)-9H-purin-2-yl)phenyl)urea] | 8.15 | 6.55 | 7.52
CCNC(=O)Nc1ccc(-c2nc(N3CCOC[C@@H]3C)c3nc(C4CC4)n(C)c3n2)cc1 [Compound 102, (S)-1-(4-(8-cyclopropyl-9-methyl-6-(3-methylmorpholino)-9H-purin-2-yl)phenyl)-3-ethylurea] | 8.10 | 6.68 | 7.43
CCNC(=O)Nc1ccc(-c2nc(N3CCOC[C@@H]3C)c3nc(C4(O)CCOCC4)n(C)c3n2)cc1 [Compound 103, (S)-1-ethyl-3-(4-(8-(4-hydroxytetrahydro-2H-pyran-4-yl)-9-methyl-6-(3-methylmorpholino)-9H-purin-2-yl)phenyl)urea] | 8.30 | 6.92 | 7.54
CCNC(=O)Nc1ccc(-c2nc(N3CCOC[C@@H]3C)c3nc(C4(O)CCOCC4)n(CC)c3n2)cc1 [Compound 104, (S)-1-ethyl-3-(4-(9-ethyl-8-(4-hydroxytetrahydro-2H-pyran-4-yl)-6-(3-methylmorpholino)-9H-purin-2-yl)phenyl)urea] | 8.40 | 6.94 | 8.00
CCNC(=O)Nc1ccc(-c2nc(N3CCOC[C@@H]3C)c3nc(C4(O)CNC4)n(C)c3n2)cc1 [Compound 105, (S)-1-ethyl-3-(4-(8-(3-hydroxyazetidin-3-yl)-9-methyl-6-(3-methylmorpholino)-9H-purin-2-yl)phenyl)urea] | 7.13 | – | –
CCNC(=O)Nc1ccc(-c2nc(N3CCOC[C@@H]3C)c3nc(C4CC4)n(CC)c3n2)cc1 [Compound 106, (S)-1-(4-(8-cyclopropyl-9-ethyl-6-(3-methylmorpholino)-9H-purin-2-yl)phenyl)-3-ethylurea] | 8.10 | 6.36 | 7.82
CCNC(=O)Nc1ccc(-c2nc(N3CCOC[C@@H]3C)c3nc(-c4cncnc4)n(CC)c3n2)cc1 [Compound 107, (S)-1-ethyl-3-(4-(9-ethyl-6-(3-methylmorpholino)-8-(pyrimidin-5-yl)-9H-purin-2-yl)phenyl)urea] | 8.52 | 6.95 | 8.15
CCNC(=O)Nc1ccc(-c2nc(N3CCOC[C@@H]3C)c3nc(C4(F)COC4)n(C)c3n2)cc1 [Compound 108, (S)-1-ethyl-3-(4-(8-(3-fluorooxetan-3-yl)-9-methyl-6-(3-methylmorpholino)-9H-purin-2-yl)phenyl)urea] | 8.52 | 6.63 | 8.05
CCNC(=O)Nc1ccc(-c2nc(N3CCOC[C@@H]3C)c3nc(C4(F)COC4)n(CC)c3n2)cc1 [Compound 109, (S)-1-ethyl-3-(4-(8-(3-fluorooxetan-3-yl)-9-ethyl-6-(3-methylmorpholino)-9H-purin-2-yl)phenyl)urea] | 8.52 | 6.66 | 8.10
CCNC(=O)Nc1ccc(-c2nc(N3CCOC[C@@H]3C)c3nc(C4(F)CCOCC4)n(CC)c3n2)cc1 [Compound 110, (S)-1-ethyl-3-(4-(9-ethyl-8-(4-fluorotetrahydro-2H-pyran-4-yl)-6-(3-methylmorpholino)-9H-purin-2-yl)phenyl)urea] | 8.30 | 6.79 | 8.30
CCNC(=O)Nc1ccc(-c2nc(N3CCOC[C@@H]3C)c3nc(C4(O)COC4)n(CC)c3n2)cc1 [Compound 111, (S)-1-ethyl-3-(4-(9-ethyl-8-(3-hydroxyoxetan-3-yl)-6-(3-methylmorpholino)-9H-purin-2-yl)phenyl)urea] | 8.40 | 6.57 | 8.40
CCn1c(C2CC2)nc2c(N3CCOC[C@@H]3C)nc(-c3ccc(Nc4cccc(=O)[nH]4)cc3)nc21 [Compound 112, (S)-6-(4-(8-cyclopropyl-9-ethyl-6-(3-methylmorpholino)-9H-purin-2-yl)phenylamino)pyridin-2(1H)-one] | 8.22 | 6.07 | 8.22
CCn1c(C2CC2)nc2c(N3CCOC[C@@H]3C)nc(-c3ccc(NC(=O)NC4COC4)cc3)nc21 [Compound 113, (S)-1-(4-(8-cyclopropyl-9-ethyl-6-(3-methylmorpholino)-9H-purin-2-yl)phenyl)-3-(oxetan-3-yl)urea] | 8.10 | 5.77 | 8.10

From patent US8288381B2, “N-9 substituted purine compounds, compositions and methods of use” (Genentech, Inc., priority 2009, dated 2012)
